Measurements reported in patent publication US20230416240A1, “KAT6 TARGETING COMPOUNDS” (Prelude Therapeutics Incorporated, priority 2022, published 2023).

Legend:
KAT6A = target: T1, KAT6A (Homo sapiens, UniProt Q92794); test: Western Blot KAT6A Degradation Assessment; assay type: cell-based; conditions: 0.1 μM compound, 24 hours of treatment, HCC1954 cell line, KAT6A normalized to GAPDH and DMSO
T1 construct: These studies were conducted in the HCC1954 cell line which harbors a KAT6A copy number amplification; endogenous in cells; host or cells: HCC1954
T1 sequence (Q92794 whole entry): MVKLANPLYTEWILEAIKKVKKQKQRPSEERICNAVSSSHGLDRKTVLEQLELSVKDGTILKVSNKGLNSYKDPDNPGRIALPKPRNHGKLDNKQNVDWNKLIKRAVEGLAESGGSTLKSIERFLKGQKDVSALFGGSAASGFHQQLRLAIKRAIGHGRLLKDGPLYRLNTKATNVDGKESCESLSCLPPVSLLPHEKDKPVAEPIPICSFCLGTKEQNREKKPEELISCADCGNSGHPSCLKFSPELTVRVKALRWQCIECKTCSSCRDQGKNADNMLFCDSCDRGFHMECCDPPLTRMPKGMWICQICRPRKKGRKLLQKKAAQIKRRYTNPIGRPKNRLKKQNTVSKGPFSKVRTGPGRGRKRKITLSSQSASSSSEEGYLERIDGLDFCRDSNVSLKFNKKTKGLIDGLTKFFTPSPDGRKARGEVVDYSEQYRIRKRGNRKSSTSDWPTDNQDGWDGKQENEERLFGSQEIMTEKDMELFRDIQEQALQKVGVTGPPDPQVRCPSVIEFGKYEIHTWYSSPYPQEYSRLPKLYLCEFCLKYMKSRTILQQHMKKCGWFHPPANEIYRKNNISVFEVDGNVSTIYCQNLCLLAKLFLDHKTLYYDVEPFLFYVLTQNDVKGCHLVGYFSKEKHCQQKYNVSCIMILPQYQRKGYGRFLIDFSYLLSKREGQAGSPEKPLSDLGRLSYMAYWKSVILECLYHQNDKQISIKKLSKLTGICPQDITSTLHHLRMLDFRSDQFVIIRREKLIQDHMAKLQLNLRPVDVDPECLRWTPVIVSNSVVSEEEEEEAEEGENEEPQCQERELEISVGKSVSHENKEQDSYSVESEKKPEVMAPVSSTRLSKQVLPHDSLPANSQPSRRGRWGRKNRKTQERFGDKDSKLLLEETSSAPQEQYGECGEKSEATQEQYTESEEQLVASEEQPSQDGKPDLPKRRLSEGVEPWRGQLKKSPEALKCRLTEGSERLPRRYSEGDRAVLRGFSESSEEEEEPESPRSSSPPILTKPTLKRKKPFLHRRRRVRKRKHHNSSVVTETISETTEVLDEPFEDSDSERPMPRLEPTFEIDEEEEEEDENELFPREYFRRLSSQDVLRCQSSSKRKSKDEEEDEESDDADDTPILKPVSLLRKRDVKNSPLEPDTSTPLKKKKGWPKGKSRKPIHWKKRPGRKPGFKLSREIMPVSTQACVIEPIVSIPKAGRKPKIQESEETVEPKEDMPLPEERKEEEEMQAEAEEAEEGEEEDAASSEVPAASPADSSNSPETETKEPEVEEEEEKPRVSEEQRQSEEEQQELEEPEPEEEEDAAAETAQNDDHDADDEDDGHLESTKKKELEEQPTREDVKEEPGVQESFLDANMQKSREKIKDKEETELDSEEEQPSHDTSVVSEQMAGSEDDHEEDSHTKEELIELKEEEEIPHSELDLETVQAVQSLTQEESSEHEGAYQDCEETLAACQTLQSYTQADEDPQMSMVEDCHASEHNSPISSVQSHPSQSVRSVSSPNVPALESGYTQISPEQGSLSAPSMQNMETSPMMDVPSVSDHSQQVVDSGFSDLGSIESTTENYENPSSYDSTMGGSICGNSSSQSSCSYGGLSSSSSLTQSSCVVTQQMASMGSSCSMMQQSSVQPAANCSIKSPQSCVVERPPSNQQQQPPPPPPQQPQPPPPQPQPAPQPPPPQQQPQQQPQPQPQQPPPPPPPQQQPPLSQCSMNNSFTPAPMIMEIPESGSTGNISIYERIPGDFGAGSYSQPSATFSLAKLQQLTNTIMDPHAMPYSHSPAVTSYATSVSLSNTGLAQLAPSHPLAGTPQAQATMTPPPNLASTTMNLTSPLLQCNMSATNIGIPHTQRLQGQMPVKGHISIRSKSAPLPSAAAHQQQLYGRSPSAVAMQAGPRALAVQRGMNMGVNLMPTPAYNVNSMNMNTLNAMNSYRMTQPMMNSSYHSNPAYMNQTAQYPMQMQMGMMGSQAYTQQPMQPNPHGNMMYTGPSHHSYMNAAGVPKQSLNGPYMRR
Method: The activity of compounds was evaluated by measuring KAT6A protein levels as a readout of KAT6A degradation ability using western blot. These studies were conducted in the HCC1954 cell line which harbors a KAT6A copy number amplification. Cells were maintained in a 37° C. incubator at 5% CO2 in the following media: RPMI 1640, ATCC© Modification (Gibco, A10491-01) supplemented with 10% v/v FBS (Gibco, 26140-079) and 1% penicillin streptomycin (Gibco, 15140-122). Cells were seeded in 6-well plates at a density of 300,000 cells/well and allowed to attach overnight in an incubator. Compounds dissolved in DMSO were prepared at 1000× the desired final concentration such that the final percentage of DMSO was 0.1%. After 24 hours of treatment, cells were washed with phosphate buffered saline (PBS) (Corning, 21-040-CV), detached with trypsin-EDTA (Gibco, #25200-056), and pelleted in complete RPMI media in a microcentrifuge for 5 min at 1500 rpm. Protein was extracted from cell pellets by re-suspending in 15 uL PBS before adding 45 uL of lysis buffer composed of 4% SDS, 1× protease and phosphatase inhibitors, and 1 mM PMSF (Cell Signaling Technology, #8553S). Lysates were transferred to homogenizer columns (Omega Biotek, #HCR003) and centrifuged for 1.5 min at 12,000 rpm.
Homogenized lysates were quantified by BCA assay (ThermoScientific, Pierce BCA Protein Assay, #23223, #23224) as per manufacturer instructions. Samples were then diluted in 4× Laemmli buffer (Biorad, #1610747) to a 1× solution which was boiled at 95° C. for 5 minutes. To assess KAT6A protein expression, samples were run on 26 well gels (Biorad, 4-15% Criterion TGX Precast gels, #5671085) at 120V for approximately 1 hour. Protein was transferred to low-fluorescence PVDF membranes (Millipore Sigma, #IPFL00010) using Trans-Blot Turbo Transfer System (Biorad). Membranes were then probed with KAT6A (Cell Signaling Technology, #78462) and GAPDH (Cell Signaling Technology, #5174S) primary, and fluorescently tagged secondary antibodies (LI-COR, IRDye 800CW Goat anti-rabbit #926-32211; IRDye 680RD Goat anti-mouse #926-68070) at manufacturer recommended conditions using the iBind Flex western device (Thermofisher, SLF2000). Membranes were washed briefly in water and scanned with a LI-COR Odyssey CLx. Quantification of bands was assessed using Image Studio Ver 5.2. to normalize KAT6A expression to GAPDH loading controls before representing KAT6A expression as a percentage of that observed in DMSO.

HiBit tagged KAT6A = target: T2, HiBit tagged KAT6A (Homo sapiens, UniProt Q92794); test: HiBit KAT6A Degradation Assessment; assay type: cell-based; conditions: HeLa cells with HiBit tagged KAT6A, 18 h of treatment, 9-point serial dilution
T2 construct: host or cells: HeLa
T2 sequence (Q92794 whole entry): as above
Method: The degradation activity of compounds was evaluated by measuring levels of KAT6A protein using the HiBiT system. These studies were conducted in HeLa cells with a HiBit tagged KAT6A. Cells were maintained in a 37° C. incubator at 5% CO2 in EMEM (ATCC, 30-2003) supplemented with 10% v/v FBS (Gibco, 26140-079) and 1% penicillin streptomycin. Cells were seeded in 384-well plates at a density of 2,000 cells/well. Compounds dissolved in DMSO were added in 9-point serial dilution. After 18 h of treatment, KAT6A levels were measured using the Nano-Glo® HiBiT Lytic Detection System (Promega catalog number N3030) per manufacturer's instructions. Luminescence signal was measured with a multimode plate reader (Envision 2105, Perkin Elmer). Luminescence values were normalized to background and DMSO controls to quantify KAT6A for each condition. Results were analyzed, and DC50 and Dmax values obtained using a four-parameter logistic curve fit.

Row | SMILES | inhibition at 0.1 µM (KAT6A) | Dmax (HiBit tagged KAT6A) | DC50 (HiBit tagged KAT6A)
1 | COc1cc(Cn2cccn2)cc2onc(NS(=O)(=O)c3cccc(N4CCN(CCCC5CCN(c6ccc7c(c6)C(=O)N(C6CCC(=O)NC6=O)C7=O)CC5)CC4)c3)c12 (stereo not shown) [Example 2, N-(6-((1H-Pyrazol-1-yl)methyl)-4-methoxybenzo[d]isoxazol-3-yl)-3-(4-(3-(1-(2-(2,6-dioxopiperidin-3-yl)-1,3-dioxoisoindolin-5-yl)piperidin-4-yl)propyl)piperazin-1-yl)benzenesulfonamide] | 50 to 75% | 25 to 50% | 
2 | COc1cc(Cn2cccn2)cc2onc(NS(=O)(=O)c3cccc(N4CCN(CCC5CCN(c6ccc7c(c6)C(=O)N(C6CCC(=O)NC6=O)C7=O)CC5)CC4)c3)c12 (stereo not shown) [Example 3, N-(6-((1H-Pyrazol-1-yl)methyl)-4-methoxybenzo[d]isoxazol-3-yl)-3-(4-(2-(1-(2-(2,6-dioxopiperidin-3-yl)-1,3-dioxoisoindolin-5-yl)piperidin-4-yl)ethyl)piperazin-1-yl)benzenesulfonamide] | 0 to 50% | 50 to 75% | 10 to 100 nM
3 | COc1cc(Cn2cccn2)cc2onc(NS(=O)(=O)c3cccc(N4CCN(C5CC6(CCN(c7ccc8c(c7)C(=O)N(C7CCC(=O)NC7=O)C8=O)CC6)C5)CC4)c3)c12 (stereo not shown) [Example 4, 3-[4-[7-[2-(2,6-Dioxopiperidin-3-yl)-1,3-dioxoisoindol-5-yl]-7-azaspiro[3.5]nonan-2-yl]piperazin-1-yl]-N-[4-methoxy-6-(pyrazol-1-ylmethyl)-1,2-benzoxazol-3-yl]benzenesulfonamide] | 50 to 75% | > 75% | 10 to 100 nM
4 | COc1cc(Cn2cccn2)cc2onc(NS(=O)(=O)c3cccc(N4CC5(CCN(CC6CCN(c7ccc8c(c7)C(=O)N(C7CCC(=O)NC7=O)C8=O)C6)CC5)C4)c3)c12 (stereo not shown) [Example 5, 3-[7-[[1-[2-(2,6-Dioxopiperidin-3-yl)-1,3-dioxoisoindol-5-yl]pyrrolidin-3-yl]methyl]-2,7-diazaspiro[3.5]nonan-2-yl]-N-[4-methoxy-6-(pyrazol-1-ylmethyl)-1,2-benzoxazol-3-yl]benzenesulfonamide] | > 75% | > 75% | < 10 nM
5 | COc1cc(Cn2cccn2)cc2onc(NS(=O)(=O)c3cccc(N4CCC(CN5CCN(c6ccc7c(c6)c6cccnc6n7C6CCC(=O)NC6=O)CC5)C4)c3)c12 (stereo not shown) [Example 6, 3-[3-[[4-[9-(2,6-Dioxopiperidin-3-yl)pyrido[2,3-b]indol-6-yl]piperazin-1-yl]methyl]pyrrolidin-1-yl]-N-[4-methoxy-6-(pyrazol-1-ylmethyl)-1,2-benzoxazol-3-yl]benzenesulfonamide] | 50 to 75% | 50 to 75% | 10 to 100 nM
6 | COc1cc(Cn2cccn2)cc2onc(NS(=O)(=O)c3cccc(N4CCN(CC5CCN(CC6CCN(c7ccc8c(c7)C(=O)N(C7CCC(=O)NC7=O)C8=O)CC6)CC5)CC4)c3)c12 (stereo not shown) [Example 7, 3-[4-[[1-[[1-[2-(2,6-Dioxopiperidin-3-yl)-1,3-dioxoisoindol-5-yl]piperidin-4-yl]methyl]piperidin-4-yl]methyl]piperazin-1-yl]-N-[4-methoxy-6-(pyrazol-1-ylmethyl)-1,2-benzoxazol-3-yl]benzenesulfonamide] | > 75% | > 75% | < 10 nM
7 | COc1cc(Cn2cccn2)cc2onc(NS(=O)(=O)c3cccc(N4CCN(C5CC6(CCN(c7ccc8c(c7)C(=O)N(C7CCC(=O)NC7=O)C8=O)C6)C5)CC4)c3)c12 (stereo not shown) [Example 8, 3-[4-[6-[2-(2,6-Dioxopiperidin-3-yl)-1,3-dioxoisoindol-5-yl]-6-azaspiro[3.4]octan-2-yl]piperazin-1-yl]-N-[4-methoxy-6-(pyrazol-1-ylmethyl)-1,2-benzoxazol-3-yl]benzenesulfonamide] | > 75% | 50 to 75% | 10 to 100 nM
8 | COc1cc(Cn2cccn2)cc2onc(NS(=O)(=O)c3cccc(N4CCN(CCC5CCN(c6ccc7c(c6)C(=O)N(C6CCC(=O)NC6=O)C7=O)C5)CC4)c3)c12 (stereo not shown) [Example 9, 3-[4-[2-[1-[2-(2,6-Dioxopiperidin-3-yl)-1,3-dioxoisoindol-5-yl]pyrrolidin-3-yl]ethyl]piperazin-1-yl]-N-[4-methoxy-6-(pyrazol-1-ylmethyl)-1,2-benzoxazol-3-yl]benzenesulfonamide] | 0 to 50% | 50 to 75% | 10 to 100 nM
9 | COc1cc(Cn2cccn2)cc2onc(NS(=O)(=O)c3cccc(N4CCN(CC5CCN(c6ccc7c(c6)CN(C6CCC(=O)NC6=O)C7=O)C5)CC4)c3)c12 (stereo not shown) [Example 10, 3-[4-[[1-[2-(2,6-Dioxopiperidin-3-yl)-1-oxo-3H-isoindol-5-yl]pyrrolidin-3-yl]methyl]piperazin-1-yl]-N-[4-methoxy-6-(pyrazol-1-ylmethyl)-1,2-benzoxazol-3-yl]benzenesulfonamide] | 50 to 75% | 25 to 50% | 
10 | COc1cc(Cn2cccn2)cc2onc(NS(=O)(=O)c3cccc(N4CC5(CN(CC6CCN(c7ccc8c(c7)C(=O)N(C7CCC(=O)NC7=O)C8=O)C6)C5)C4)c3)c12 (stereo not shown) [Example 11, 3-[6-[[1-[2-(2,6-dioxopiperidin-3-yl)-1,3-dioxoisoindol-5-yl]pyrrolidin-3-yl]methyl]-2,6-diazaspiro[3.3]heptan-2-yl]-N-[4-methoxy-6-(pyrazol-1-ylmethyl)-1,2-benzoxazol-3-yl]benzenesulfonamide] | 50 to 75% | 50 to 75% | 10 to 100 nM
